Laboratory results taken from PMC11727334, “A self-immolative Kdn-glycoside substrate enables high-throughput screening for inhibitors of Kdnases” (Glycobiology, 2024).
Entries after “also recorded” stand apart in the source; their conditions may differ. Like-named read-outs stand apart in the source and are kept apart here.

Experiments:
[1] = molecular target: Aspergillus terreus Kdnase (AtK) (Aspergillus terreus, UniProt Q0CMX0); test: Inhibition assay of recombinant AtK using Kdn4MU as substrate; type: biochemical; settings: Table 1
Aspergillus terreus Kdnase (AtK), sequence (Q0CMX0 entry or part of it): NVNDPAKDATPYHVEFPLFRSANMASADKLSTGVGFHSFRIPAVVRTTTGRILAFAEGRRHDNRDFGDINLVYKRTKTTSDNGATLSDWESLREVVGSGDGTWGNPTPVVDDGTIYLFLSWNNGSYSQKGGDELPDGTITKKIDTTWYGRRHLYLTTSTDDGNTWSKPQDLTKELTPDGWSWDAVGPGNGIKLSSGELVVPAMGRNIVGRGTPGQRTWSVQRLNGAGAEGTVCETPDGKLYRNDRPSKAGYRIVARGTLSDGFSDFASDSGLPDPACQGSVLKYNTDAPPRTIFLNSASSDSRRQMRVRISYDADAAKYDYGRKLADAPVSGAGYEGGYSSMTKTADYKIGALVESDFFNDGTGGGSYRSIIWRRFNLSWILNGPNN
Text: (§1) We purchase fresh commercial material for compounds 13 and 14 and performed inhibition assays using recombinant AfK (Methods, Fig. S8, Supporting Information). We determined IC50 values in quadruplicate using 4MU-Kdn as the substrate ([Yeung et al. 2013]). […] We submitted both compounds to a pan-assay interference compounds (PAINS) filter, a compilation of chemical substructures known to show promiscuous biological activities ([Baell and Nissink 2018]). […] We performed standard inhibition assays as described earlier using inhibitor 13 and these recombinant enzymes. […] We also tested inhibitor 13 with the sialidase MvNA, the closest structural homologue to AfK, that is known to cleave a multitude of substrates including Kdn glycosides ([Telford et al. 2011]).
(§2) Each 200 μM reaction mixture was incubated at rt for 2 min prior to the addition of purified sialidase. Inhibitor was added to the reaction mixture and allowed to incubate at rt between 0–60 min in 100 mM sodium acetate buffer pH 4.0 and 0.01% BSA prior to the addition of substrate. The kinetic parameters were determined from initial rate measurements using a substrate concentration of Km/4. The progress of the reaction was continuously monitored for 15 min using a fluorescence spectrophotometer (BioTek Neo 2) and excitation and emission wavelengths of 360 and 450 nm, respectively.

[2] = molecular target: T1, Kdnase produced by A. fumigatus (AfK) (Aspergillus fumigatus, UniProt Q4WQS0); test: Inhibition assay of recombinant AfK using 4MU-Kdn as substrate; type: biochemical
T1 construct: AfK was expressed and purified as described by Telford et al; made in house
T1 sequence (Q4WQS0 21-406): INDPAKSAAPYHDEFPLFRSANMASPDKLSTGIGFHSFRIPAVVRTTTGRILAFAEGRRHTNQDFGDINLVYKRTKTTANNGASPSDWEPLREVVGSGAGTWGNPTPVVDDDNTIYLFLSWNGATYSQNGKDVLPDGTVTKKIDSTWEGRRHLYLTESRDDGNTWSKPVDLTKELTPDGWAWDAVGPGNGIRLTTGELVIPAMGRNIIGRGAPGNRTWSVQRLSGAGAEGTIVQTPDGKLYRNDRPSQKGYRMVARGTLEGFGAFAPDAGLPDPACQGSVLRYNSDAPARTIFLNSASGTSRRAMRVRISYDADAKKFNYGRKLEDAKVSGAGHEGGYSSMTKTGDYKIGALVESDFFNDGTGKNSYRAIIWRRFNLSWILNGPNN
Text: as §1, §2

[3] = molecular target: MvNA (Micromonospora viridifaciens, UniProt Q02834); test: Differential scanning fluorimetry (DSF) thermal shift assay, MvNA; type: binding; settings: inhibitor 500 µM
MvNA, sequence (Q02834 38-647): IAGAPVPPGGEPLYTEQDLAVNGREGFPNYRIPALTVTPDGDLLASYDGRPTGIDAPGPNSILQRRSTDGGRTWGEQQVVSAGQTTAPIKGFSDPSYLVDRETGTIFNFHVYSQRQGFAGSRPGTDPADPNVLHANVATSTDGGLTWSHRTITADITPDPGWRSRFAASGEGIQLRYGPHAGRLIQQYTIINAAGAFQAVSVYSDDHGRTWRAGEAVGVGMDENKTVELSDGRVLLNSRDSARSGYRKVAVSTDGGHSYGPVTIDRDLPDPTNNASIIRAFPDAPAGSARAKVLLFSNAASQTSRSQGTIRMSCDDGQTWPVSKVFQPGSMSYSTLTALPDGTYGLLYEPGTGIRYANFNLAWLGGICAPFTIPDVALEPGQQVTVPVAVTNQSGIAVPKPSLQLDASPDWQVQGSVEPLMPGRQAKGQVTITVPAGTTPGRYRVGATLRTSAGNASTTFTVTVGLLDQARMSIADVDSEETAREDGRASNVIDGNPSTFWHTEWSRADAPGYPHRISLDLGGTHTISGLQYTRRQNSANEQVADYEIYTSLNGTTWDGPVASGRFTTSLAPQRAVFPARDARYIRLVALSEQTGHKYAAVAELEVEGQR
Experimental: (§3) Table S3. Differential scanning fluorometry-based (DSF) assay for inhibitors 2, 13, and 17 binding to Af, At, Tr and MvNA. Protein thermal shifts(ΔTm) using DMSO (2.5%), and inhibitors 2, 13, and 17 at 500 µM against the Kdnase of Af, At, Tr and MvNA. Assay done using 5–10 µM enzyme and 100 mM pH 4.0 NaOAc (pH 5.5 MvNA). A temperature range of 25°C to 95°C was used with a gradient of 0.05°C/sec. […]
(§4) Table S4. Thermal shifts (ΔTm) for stabilization of AfK, AtK, TrK and MvNA on inhibitor binding relative to the DMSO (2.5%) control. […]

[4] = molecular target: Trichophyton rubrum Kdnase (TrK) (Trichophyton rubrum, UniProt A0A178EUH2); test: Inhibition assay of recombinant TrK using Kdn4MU as substrate; type: biochemical; settings: Table 1
Trichophyton rubrum Kdnase (TrK), sequence (A0A178EUH2 entry or part of it): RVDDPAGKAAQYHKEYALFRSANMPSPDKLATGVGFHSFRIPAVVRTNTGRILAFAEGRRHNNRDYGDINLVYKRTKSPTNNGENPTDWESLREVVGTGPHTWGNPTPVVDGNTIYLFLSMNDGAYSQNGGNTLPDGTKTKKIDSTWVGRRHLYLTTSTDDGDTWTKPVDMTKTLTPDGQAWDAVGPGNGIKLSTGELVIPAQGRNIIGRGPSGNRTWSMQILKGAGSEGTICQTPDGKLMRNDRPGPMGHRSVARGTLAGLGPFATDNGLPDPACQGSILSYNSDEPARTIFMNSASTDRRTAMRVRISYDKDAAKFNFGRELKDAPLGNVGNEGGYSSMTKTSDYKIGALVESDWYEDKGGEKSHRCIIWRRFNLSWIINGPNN
Text: as §1, §2

[5] = molecular target: neuraminidase MvNA (Micromonospora viridifaciens, UniProt Q02834); test: Inhibition assay of the sialidase MvNA using Kdn4MU as substrate; type: biochemical
neuraminidase MvNA, sequence (Q02834 38-647): as the sequence (Q02834 38-647) above
Text: as §1
as §2, with “Inhibitor was added to the reaction mixture and allowed to incubate at rt between 0–60 min in 100 mM sodium acetate buffer pH 4.0 and 0.01% BSA prior to the addition of substrate.” left out

[6] = system: AtK; test: Differential scanning fluorimetry (DSF) thermal shift assay, AtK; type: binding, Aspergillus terreus
Text: (§5) We next used a separate biophysical technique, differential scanning fluorimetry (DSF), to confirm that these compound bind to the various Kdnases. Specifically, we measured protein melting temperatures in the presence of Kdn2en (2) and candidate ligands 13 and 17 (Fig. 3D). […] We repeated this DSF assay on AtK and TrK and we observed similar trends in thermal shifts (Fig. S14 and Tables S2,S3 and S4, Supporting Information). […] Accordingly, further follow up on this compound would need to be pursued with an awareness of this possibility.
as §3, §4

[7] = molecular target: T2, AfK (Aspergillus fumigatus, UniProt Q4WQS0); test: Differential scanning fluorimetry (DSF) thermal shift assay, AfK; type: binding
T2 construct: AfK was expressed and purified as described by Telford et al; made in house
T2 sequence (Q4WQS0 21-406): as the sequence (Q4WQS0 21-406) above
Text: as §5, §3, §4

[8] = system: TrK; test: Differential scanning fluorimetry (DSF) thermal shift assay, TrK; type: binding, Trichophyton rubrum
Text: as §5, §3, §4

[9] = molecular target: T2, AfK; settings: Table S1; ref Telford et al., J Biol Chem, 2011, 10783; cited from earlier work
[10] = molecular target: T2, AfK; test: HTS assay of AfK activity using Kdn glycoside 4 (384-well, stop solution); type: biochemical; settings: TargetMol library pilot screen
Experimental: We next miniaturized our assay for use in a 384-well microplate format by optimizing the quantity of detergent and checking for fluorescent signal stability (Figs 2A,S6 and S7 Supporting Information). In each well, we added a solution of buffer containing AfK (50 nM) and then added a library compound using a pin tool. We included both detergent (0.2% (v/v) Tween-20) and BSA (0.01% BSA) to reduce false positives arising from aggregation prone compounds ([Feng et al. 2007]). We then equilibrated the mixture prior to the addition of substrate 4, and the resultant solution was incubated for 1 h after which stop solution was added. To ensure cyclization was complete, the mixture was allowed to react for 1 h prior to measuring the fluorescence. Candidate hits identified in this primary screen were cherry picked and delivered into a gold plate that was used to confirm hits.
To each well in a 384-well microplate, enzyme (20 μL of a 50 nM stock solution) in reaction buffer (100 mM NaOAc, 0.2% Tween-20, 0.01% BSA, pH 4) was added to a library compound (200 nL of 20 μM TargetMol, 10 μM Chembridge), and this mixture was incubated at rt for 1 h. Then, substrate 4 (20 μL of a 50 μM stock) was added and the resultant mixture was incubated at rt for an additional 1 hr. Following addition of stop solution (40 μL of 1 M aqueous K2CO3, pH ≈ 12) to the mixture the plate was incubated for 1 h at rt. Next, the fluorescence for each well was measured (BioTek Neo 2) using an excitation and an emission wavelength of 360 and 450 nm, respectively. The collected data was analyzed using Prism 7.0. We used the known mechanism-based inactivator 2,3-diF-Kdn (3) as the positive control ([Watts et al. 2006]; [Khazaei et al. 2015]). That is, using 2,3-diFKdn at a concentration of 30 μM, following a 10 min incubation, gives a background signal that equates to >90% inhibition.

[11] = system: A. fumigatus; design: method as in Nesbitt et al. 2018; settings: ref Nesbitt et al. 2018, cited from earlier work
[12] = 37 °C, Kdn4MU substrate, NaOAc 100 mM pH 4.0, 0.01% BSA, read-out: IC50
[13] = calculated Ki = IC50/(([S]/Km) + 1)
[14] = Table S2, values from this work
[15] = inhibitor 500 µM, 100 mM pH 4.0 NaOAc, 5–10 µM enzyme

Which IC50 [1, 12] does the source give for `O=C1NC[C@@]2(C(=O)O)CN(Cc3ccc(C4CCCCC4)s3)C[C@@H]12` [compound 17] here?
The IC50 was 50 ± 1.2 µM.

And the Hill coefficient ([1]; 37 °C, pH 4.0)?
The Hill coefficient was −0.88.

And the Ki [1, 13]?
Its Ki is 38.5 µM.

What about the “mode of inhibition (Lineweaver-Burk plots)” value ([2]; AfK) of the same molecule?
Its value is “competitive inhibitor”.

What about the “fold lower IC50 value than that reported for Kdn2en 2” value ([2]; AfK, Kdn2en value from Yeung et al. 2013) of the same molecule?
Its value is 5 fold.

And the IC50 ([2]; Table 1, 37 °C, Kdn4MU substrate, NaOAc 100 mM pH 4.0, 0.01% BSA, read-out: IC50)?
Its IC50 is 115 ± 2 µM.

And the Hill coefficient ([2]; Table 1, 37 °C, pH 4.0)?
The Hill coefficient was −0.81.

What about the Ki ([2]; Table 1, calculated Ki = IC50/(([S]/Km) + 1), read-out: Ki) of the same molecule?
Its Ki is 74.7 µM.

What about the IC50 ([2]; Table S2, Kdn4MU substrate, sodium acetate 100 mM pH 4.0, 0.01% BSA, 37 C, values from this work, read-out: IC50) of the same molecule?
The IC50 was 115 ± 2 µM.

What about the Hill [2, 14] of the same molecule?
Its Hill is “–0.81”.

And the “inhibition of AfK in standard inhibition assay” value ([2]; purchased compounds, 4MU-Kdn 1 as substrate)?
Its value is “inhibited AfK”.

And the ΔTm at 500 µM ([3]; Table S4, read-out: Thermal shift (ΔTm) relative to DMSO (2.5%) control)?
The ΔTm at 500 µM was 5.2 °C.

What about the “protein melting temperature (DSF, Table S3)” value (from here on “protein melting temperature”) ([3]; pH 5.5, 5–10 µM enzyme) of the same molecule?
Its value is 59.1 ± 0.1 °C.

And the IC50 [4, 12]?
The IC50 was 93.3 ± 0.8 µM.

What about the Hill coefficient ([4]; 37 °C, pH 4.0) of the same molecule?
Its Hill coefficient is −1.11.

And the Ki [4, 13]?
The Ki was 73.3 µM.

What about the IC50 [5] of the same molecule?
Its IC50 is 6.6 ± 0.6 µM.

And the Hill coefficient ([5]; Table 1, 37 °C, pH 5.5)?
Its Hill coefficient is −0.89.

And the “effect on thermal stability of the folded enzyme (DSF, in words)” value ([6]; AtK)?
The value was “stabilizes all three Kdnases”.

And the “Thermal shift (ΔTm) relative to DMSO (2.5%) control” value ([6]; Table S4, inhibitor 500 µM)?
Its value is “+3.5 ± 0.1 °C”.

What about the “protein melting temperature” value [6, 15] of the same molecule?
Its value is 55.4 ± 0.1 °C.

And the “effect on thermal stability of the folded enzyme (DSF, in words)” value ([7]; AfK)?
Its value is “stabilizes all three Kdnases; also recorded: positive unfolding temperature shifts”.

What about the “protein melting temperature” value [7, 15] of the same molecule?
Its value is 54.6 ± 0.1 °C.

What about the ΔTm at 500 µM ([7]; read-out: Thermal shift (ΔTm) relative to DMSO (2.5%) control) of the same molecule?
The ΔTm at 500 µM was 3.1 °C.

What about the “Thermal shift (ΔTm) relative to DMSO (2.5%) control” value ([8]; Table S4, inhibitor 500 µM) of the same molecule?
Its value is “+16.2 ± 0.1 °C”.

What about the “effect on thermal stability of the folded enzyme (DSF, in words)” value ([8]; TrK) of the same molecule?
The value was “stabilizes all three Kdnases”.

And the “protein melting temperature” value [8, 15]?
Its value is 50.9 ± 0.1 °C.

With `Cc1cc(=O)oc2cc(O[C@]3(C(=O)O)C[C@H](O)[C@@H](O)[C@H]([C@H](O)[C@H](O)CO)O3)ccc12` [compound 1, 4-methylumbelliferyl 3-deoxy-D-glycero-D-galacto-non-2-ulopyranosidonic acid] as the molecule, how does the Km [9] read?
The Km was 230 ± 20 µM.

And the kcat [9]?
The kcat was 41 ± 4 s–1.

Which IC50 [2] does the source give for `CC(C)(C)c1cc(C=C(C#N)C#N)cc(C(C)(C)C)c1O` [compound 14, Tyrphostin A9, reference compound] here?
The IC50 was 65.8 ± 1.7 µM.

What about the Ki [2] of the same molecule?
The Ki was 58.4 µM.

What about the “mode of inhibition (Lineweaver-Burk plots)” value ([2]; AfK) of the same molecule?
Its value is “competitive inhibitors”.

What about the Hill [2, 14] of the same molecule?
Its Hill is “–0.92”.

And the “inhibitory activity verified in repeat assay of HTS hits” value [10]?
Its value is “inhibit AfK”.

With `C[C@@H]1[C@H](O)[C@@H](C)/C=C/C=C/C=C/C=C/C=C/C=C/C=C/[C@H](O[C@@H]2O[C@H](C)[C@@H](O)[C@H](N)[C@@H]2O)C[C@@H]2O[C@](O)(C[C@@H](O)C[C@@H](O)[C@H](O)CC[C@@H](O)C[C@@H](O)CC(=O)O[C@H]1C)C[C@H](O)[C@H]2C(=O)O` [Amphotericin B] as the molecule, how does the survival outcome ([11]; immunocompromised mice infected with AfK KO spores) read?
The survival outcome was “improved survival rate”.

What about the survival outcome ([11]; immunocompromised mice infected with wild-type (WT) A. fumigatus spores) of the same molecule?
The survival outcome was “complete mortality”.
